Data as given in publication PMC7060351, “Biochemical features of the novel Tail Tubular Protein A of Yersinia phage phiYeO3-12” (Scientific Reports, 2020).

Experiments:
TTPAgp11 [1] = biological target: T1, TTPAgp11 (Yersinia phage phiYeO3-12, UniProt Q9T106); assay: GC of released glucose after MTBSTFA derivatisation; format: biochemical; settings: PBS, room temperature, 24 h; 20 µl of 47 µM protein, 100 µl of 1 mg/ml maltose in 0.2 ml
T1 construct: gene 11
T1 sequence (Q9T106 1-196): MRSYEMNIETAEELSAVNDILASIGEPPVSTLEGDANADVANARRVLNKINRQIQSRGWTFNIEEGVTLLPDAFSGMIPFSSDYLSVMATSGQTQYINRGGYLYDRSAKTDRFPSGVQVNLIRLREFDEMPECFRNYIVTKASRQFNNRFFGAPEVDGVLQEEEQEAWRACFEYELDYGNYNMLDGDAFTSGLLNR

TTPAgp11 [2] = biological target: T1, TTPAgp11; assay: backreflection light scattering during nanoDSF melting scan (aggregation); format: binding; settings: 0.25 mg/ml protein, 0.15 mg/ml sugar; 2 °C/min from 20 to 95 °C; no unfolding Tm obtained (NA); no scattering transition for protein alone (NA)
Description: backreflection light scattering during nanoDSF melting scan (aggregation) on TTPAgp11

TTPAgp11 [3] = biological target: T1, TTPAgp11; assay: nanoDSF thermal unfolding ([…] nm ratio); format: binding; settings: 0.25 mg/ml protein, 0.15 mg/ml sugar; 2 °C/min from 20 to 95 °C; protein alone Tm 53.27 °C; inverted unfolding profile, aggregation

Row | SMILES | % of maltose hydrolyzed (TTPAgp11 [1]) | Tm / Scattering / [°C] (TTPAgp11 [2]) | Tm / Fluorescence ratio 350 nm/330 nm / [°C] (TTPAgp11 [3])
1 | OC[C@H]1O[C@H](O[C@H]2[C@H](O)[C@@H](O)C(O)O[C@@H]2CO)[C@H](O)[C@@H](O)[C@@H]1O (stereo partly drawn) [maltose] | 15–18% | 36.26 °C | 
2 | CC(=O)N[C@H]1C(O)O[C@H](CO)[C@@H](O)[C@@H]1O (stereo partly drawn) [N-acetylglucosamine] |  |  | 36.41 °C
